The compounds below were run against T1, Recombinant human EP300 containing the bromodomain (EP300-BD (1040-1161)) (Homo sapiens, UniProt Q09472) (assay: EP300 Alphascreen binding assay).
T1 construct: Recombinant human EP300 bromodomain (EP300-BD (1040-1161)); made in house; host or cells: E. coli BL21-CodonPlus (DE3), modified pET vector
T1 sequence (Q09472 1040-1161): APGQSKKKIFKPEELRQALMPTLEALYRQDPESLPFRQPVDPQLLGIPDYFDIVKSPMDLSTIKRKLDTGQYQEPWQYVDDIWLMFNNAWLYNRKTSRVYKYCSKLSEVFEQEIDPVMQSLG
Method in brief: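 Displacement of a biotinylated acetyl-K56 histone H3 peptide from the N-His bromodomain construct (1040-1161) measured by AlphaScreen proximity, beads at 7.5 μg/ml final, read 60 min after addition. Protein, peptide and compound first incubated 1 h at room temperature, pH 7.5 HEPES buffer; IC50 by four-parameter logistic fit.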

| SMILES | IC50 |
| --- | --- |
| Cc1noc(C)c1-c1cnc2c(c1)c(-c1cccc(C(=O)O)c1)cn2Cc1ccccn1 [P-0049, 3-(5-(3,5-dimethylisoxazol-4-yl)-1-(pyridin-2-ylmethyl)-1H-pyrrolo[2,3-b]pyridin-3-yl)benzoic acid] | 0.1 to 1000 nM |
| Cc1noc(C)c1-c1cnc2c(c1)c(-c1cccc(C(=O)O)c1)cn2CC1CC1 [P-0050, 3-(1-(cyclopropylmethyl)-5-(3,5-dimethylisoxazol-4-yl)-1H-pyrrolo[2,3-b]pyridin-3-yl)benzoic acid] | 0.1 to 1000 nM |
| Cc1noc(C)c1-c1cnc2c(c1)c(C#CC(C)(C)C(=O)O)cn2Cc1ccccc1 [P-0051, 4-(1-benzyl-5-(3,5-dimethylisoxazol-4-yl)-1H-pyrrolo[2,3-b]pyridin-3-yl)-2,2-dimethylbut-3-ynoic acid] | 0.1 to 1000 nM |
| COC(=O)c1cc(-n2cc(Cc3ccccc3)c3ncc(-c4c(C)noc4C)cc32)ccn1 [P-0052, methyl 4-(3-benzyl-6-(3,5-dimethylisoxazol-4-yl)-1H-pyrrolo[3,2-b]pyridin-1-yl)picolinate] | 0.1 to 1000 nM |
| Cc1noc(C)c1-c1cnc2c(Cc3ccccc3)cn(-c3ccnc(C(=O)O)c3)c2c1 [P-0053, 4-(3-benzyl-6-(3,5-dimethylisoxazol-4-yl)-1H-pyrrolo[3,2-b]pyridin-1-yl)picolinic acid] | 0.1 to 1000 nM |
| Cc1noc(C)c1-c1cnc2c(C(=O)c3ccccc3)cn(-c3ccnc(C(=O)O)c3)c2c1 [P-0054, 4-(3-benzoyl-6-(3,5-dimethylisoxazol-4-yl)-1H-pyrrolo[3,2-b]pyridin-1-yl)picolinic acid] | 0.1 to 1000 nM |
| Cc1noc(C)c1-c1cnc2c(c1)c(-c1ccc(C(=O)O)cc1OC(F)(F)F)cn2-c1ccc(C2CC2)nc1 [P-0388, 4-(1-(6-cyclopropylpyridin-3-yl)-5-(3,5-dimethylisoxazol-4-yl)-1H-pyrrolo[2,3-b]pyridin-3-yl)-3-(trifluoromethoxy)benzoic acid] | 0.1 to 1000 nM |
| Cc1noc(C)c1-c1cnc2c(c1)c(-c1ccc(C(=O)O)cc1OC(F)(F)F)cn2C1CCC(C#N)C1 (stereo not drawn) [P-0389, 4-(1-(3-cyanocyclopentyl)-5-(3,5-dimethylisoxazol-4-yl)-1H-pyrrolo[2,3-b]pyridin-3-yl)-3-(trifluoromethoxy)benzoic acid] | 0.1 to 1000 nM |
| Cc1noc(C)c1-c1cnc2c(c1)c(-c1c(Cl)cc(C(=O)O)cc1OCC(F)F)cn2-c1cnc(C2CC2)nc1 [P-0390, 3-chloro-4-(1-(2-cyclopropylpyrimidin-5-yl)-5-(3,5-dimethylisoxazol-4-yl)-1H-pyrrolo[2,3-b]pyridin-3-yl)-5-(2,2-difluoroethoxy)benzoic acid] | 0.1 to 1000 nM |
| Cc1noc(C)c1-c1cnc2c(c1)c(-c1c(Cl)cc(C(=O)O)cc1OC1CCC1)cn2-c1cnc(C2CC2)nc1 [P-0391, 3-chloro-5-cyclobutoxy-4-(1-(2-cyclopropylpyrimidin-5-yl)-5-(3,5-dimethylisoxazol-4-yl)-1H-pyrrolo[2,3-b]pyridin-3-yl)benzoic acid] | 0.1 to 1000 nM |
| COc1ncc(-n2cc(-c3ccc(C(=O)O)cc3OC(F)(F)F)c3cc(-c4c(C)noc4C)cnc32)cn1 [P-0392, 4-(5-(3,5-dimethylisoxazol-4-yl)-1-(2-methoxypyrimidin-5-yl)-1H-pyrrolo[2,3-b]pyridin-3-yl)-3-(trifluoromethoxy)benzoic acid] | 0.1 to 1000 nM |
| Cc1noc(C)c1-c1cnc2c(c1)c(-c1c(Cl)cc(C(=O)O)cc1OC(C)C)cn2-c1cnc(C2CC2)nc1 [P-0393, 3-chloro-4-(1-(2-cyclopropylpyrimidin-5-yl)-5-(3,5-dimethylisoxazol-4-yl)-1H-pyrrolo[2,3-b]pyridin-3-yl)-5-isopropoxybenzoic acid] | 0.1 to 1000 nM |
| Cc1noc(C)c1-c1cnc2c(c1)c(-c1c(F)cc(C(=O)O)cc1OC1CC1)cn2C(C1CC1)C1CC1 [P-0394, 3-cyclopropoxy-4-(1-(dicyclopropylmethyl)-5-(3,5-dimethylisoxazol-4-yl)-1H-pyrrolo[2,3-b]pyridin-3-yl)-5-fluorobenzoic acid] | 0.1 to 1000 nM |
| Cc1noc(C)c1-c1cnc2c(c1)c(-c1c(Cl)cc(C(=O)O)cc1OC(F)(F)F)cn2-c1ncccc1C#N [P-0395, 3-chloro-4-(1-(3-cyanopyridin-2-yl)-5-(3,5-dimethylisoxazol-4-yl)-1H-pyrrolo[2,3-b]pyridin-3-yl)-5-(trifluoromethoxy)benzoic acid] | 0.1 to 1000 nM |
| Cc1noc(C)c1-c1cnc2c(c1)c(-c1c(Cl)cc(C(=O)O)cc1OC1CCC1)cn2-c1ncccc1C#N [P-0396, 3-chloro-4-(1-(3-cyanopyridin-2-yl)-5-(3,5-dimethylisoxazol-4-yl)-1H-pyrrolo[2,3-b]pyridin-3-yl)-5-cyclobutoxybenzoic acid] | 0.1 to 1000 nM |
| Cc1noc(C)c1-c1cnc2c(c1)c(-c1c(F)cc(C(=O)O)cc1OC1CC1)cn2C1CCOCC1 [P-0397, 3-cyclopropoxy-4-(5-(3,5-dimethylisoxazol-4-yl)-1-(tetrahydro-2H-pyran-4-yl)-1H-pyrrolo[2,3-b]pyridin-3-yl)-5-fluorobenzoic acid] | 0.1 to 1000 nM |
| CCOc1nc(C(=O)O)c(Cl)cc1-c1cn(C2CCOCC2)c2ncc(-c3c(C)noc3C)cc12 [P-0398, 3-chloro-5-(5-(3,5-dimethylisoxazol-4-yl)-1-(tetrahydro-2H-pyran-4-yl)-1H-pyrrolo[2,3-b]pyridin-3-yl)-6-ethoxypicolinic acid] | 0.1 to 1000 nM |
| Cc1noc(C)c1-c1cnc2c(c1)c(-c1ccc(C(=O)O)cc1OC(F)(F)F)cn2-c1ccc(=O)n(C)c1 [P-0399, 4-(5-(3,5-dimethylisoxazol-4-yl)-1-(1-methyl-6-oxo-1,6-dihydropyridin-3-yl)-1H-pyrrolo[2,3-b]pyridin-3-yl)-3-(trifluoromethoxy)benzoic acid] | 0.1 to 1000 nM |
| CCc1noc(C)c1-c1cnc2c(c1)c(-c1ccc(C(=O)O)cc1OC(F)(F)F)cn2C1CCOCC1 [P-0400, 4-(5-(3-ethyl-5-methylisoxazol-4-yl)-1-(tetrahydro-2H-pyran-4-yl)-1H-pyrrolo[2,3-b]pyridin-3-yl)-3-(trifluoromethoxy)benzoic acid] | 0.1 to 1000 nM |
| CCc1onc(C)c1-c1cnc2c(c1)c(-c1ccc(C(=O)O)cc1OC(F)(F)F)cn2C1CCOCC1 [P-0401, 4-(5-(5-ethyl-3-methylisoxazol-4-yl)-1-(tetrahydro-2H-pyran-4-yl)-1H-pyrrolo[2,3-b]pyridin-3-yl)-3-(trifluoromethoxy)benzoic acid] | 0.1 to 1000 nM |
| Cc1cc(C(=O)O)cc(OC(C)C)c1-c1cn(C2CCOCC2)c2ncc(-c3c(C)noc3C)cc12 [P-0402, 4-(5-(3,5-dimethylisoxazol-4-yl)-1-(tetrahydro-2H-pyran-4-yl)-1H-pyrrolo[2,3-b]pyridin-3-yl)-3-isopropoxy-5-methylbenzoic acid] | 0.1 to 1000 nM |
| Cc1noc(C)c1-c1cnc2c(c1)c(-c1ccc(C(=O)O)cc1OC(C)C)cn2C1(C)CCOCC1 [P-0403, 4-(5-(3,5-dimethylisoxazol-4-yl)-1-(4-methyltetrahydro-2H-pyran-4-yl)-1H-pyrrolo[2,3-b]pyridin-3-yl)-3-isopropoxybenzoic acid] | 0.1 to 1000 nM |
| Cc1noc(C)c1-c1cnc2c(c1)c(-c1c(Cl)cc(C(=O)O)cc1OC(C)C)cn2C1(C)CCOCC1 [P-0404, 3-chloro-4-(5-(3,5-dimethylisoxazol-4-yl)-1-(4-methyltetrahydro-2H-pyran-4-yl)-1H-pyrrolo[2,3-b]pyridin-3-yl)-5-isopropoxybenzoic acid] | 0.1 to 1000 nM |
| CCOc1nc(C(=O)O)ccc1-c1cn(C2(C)CCOCC2)c2ncc(-c3c(C)noc3C)cc12 [P-0405, 5-(5-(3,5-dimethylisoxazol-4-yl)-1-(4-methyltetrahydro-2H-pyran-4-yl)-1H-pyrrolo[2,3-b]pyridin-3-yl)-6-ethoxypicolinic acid] | 0.1 to 1000 nM |
| CCOc1nc(C(=O)O)c(Cl)cc1-c1cn([C@H]2CCOC2)c2ncc(-c3c(C)noc3C)cc12 [P-0406, (S)-3-chloro-5-(5-(3,5-dimethylisoxazol-4-yl)-1-(tetrahydrofuran-3-yl)-1H-pyrrolo[2,3-b]pyridin-3-yl)-6-ethoxypicolinic acid] | 0.1 to 1000 nM |
| Cc1noc(C)c1-c1cnc2c(c1)c(-c1ccc(C(=O)O)cc1OC(C)C)cn2C1(C)CCOC1 (stereo not drawn) [P-0407, 4-(5-(3,5-dimethylisoxazol-4-yl)-1-(3-methyltetrahydrofuran-3-yl)-1H-pyrrolo[2,3-b]pyridin-3-yl)-3-isopropoxybenzoic acid] | 0.1 to 1000 nM |
| Cc1noc(C)c1-c1cnc2c(c1)c(-c1c(Cl)cc(C(=O)O)cc1OC(C)C)cn2C1(C)CCOC1 (stereo not drawn) [P-0408, 3-chloro-4-(5-(3,5-dimethylisoxazol-4-yl)-1-(3-methyltetrahydrofuran-3-yl)-1H-pyrrolo[2,3-b]pyridin-3-yl)-5-isopropoxybenzoic acid] | 0.1 to 1000 nM |
| Cc1noc(C)c1-c1cnc2c(c1)c(-c1c(Cl)cc(C(=O)O)cc1OC1CC1)cn2-c1ncccc1C#N [P-0409, 3-chloro-4-(1-(3-cyanopyridin-2-yl)-5-(3,5-dimethylisoxazol-4-yl)-1H-pyrrolo[2,3-b]pyridin-3-yl)-5-cyclopropoxybenzoic acid] | 0.1 to 1000 nM |
| Cc1noc(C)c1-c1cnc2c(c1)c(-c1c(F)cc(C(=O)O)cc1OC1CCC1)cn2C1CCOCC1 [P-0410, 3-cyclobutoxy-4-(5-(3,5-dimethylisoxazol-4-yl)-1-(tetrahydro-2H-pyran-4-yl)-1H-pyrrolo[2,3-b]pyridin-3-yl)-5-fluorobenzoic acid] | 0.1 to 1000 nM |
| CCOc1nc(C(=O)O)cc(C)c1-c1cn(C2CCOCC2)c2ncc(-c3c(C)noc3C)cc12 [P-0411, 5-(5-(3,5-dimethylisoxazol-4-yl)-1-(tetrahydro-2H-pyran-4-yl)-1H-pyrrolo[2,3-b]pyridin-3-yl)-6-ethoxy-4-methylpicolinic acid] | 0.1 to 1000 nM |
